Measured values reported in patent publication US11199497B2, “Fluorescent compounds as sensing agents” (OHIO NORTHERN UNIVERSITY, priority 2016, dated 2021).

Columns and labels:
[1] = Shift in emission spectrum on exposure to varying amounts of FeCl3; details: for red-shift in peak emission wavelength / Fe^3+ ions at which shift in emission spectrum is saturated: FeCl3; for total red-shift in peak emission wavelength: FeCl3, at saturation
Method: Two substituted chromones (Compound 11 and Compound 20) were dissolved in methanol and exposed to varying amounts of FeCl3 (i.e., Fe^3+). FIG. 4 illustrates the shift in emission spectrum of Compound 11 with increasing amounts of Fe^3+ ions. With about 10 equivalents of Fe^3+ ions, the shift in emission spectrum is saturated, with a total of about a 30 nm red-shift in peak emission wavelength. FIG. 5 illustrates the shift in emission spectrum of Compound 20 with increasing amounts of Fe^3+ ions. With about 10 equivalents of Fe^3+ ions, the shift in emission spectrum is saturated, with a total of about a 50 nm red-shift in peak emission wavelength.
Compound 11 was dissolved in various solvents and then exposed to varying amounts of FeCl3 (i.e., Fe^3+). […]

[2] = Emission spectrum on exposure to varying amounts of (NH4)2Fe(SO4)2.6H2O
Method: Compound 11 was dissolved in methanol and then exposed to varying amounts of FeCl3 (i.e., Fe^3+) or (NH4)2Fe(SO4)2.6H2O (i.e., Fe^2+). […] Therefore, Compound 11 may be used to detect Fe^3+ while in the presence of Fe^2+.

[3] = Emission spectrum on exposure to varying amounts of Pb(NO3)2 in different solvents
Method: Compound 20 was dissolved in methanol and then exposed to varying amounts of Pb(NO3)2 (i.e., Pb^2+). […] Therefore, a kit, method, system, or the like may utilize a specific solvent system for detection of lead or other ions. Alternatively, and especially where the metal ion concentration is unknown, a kit, method, system, or the like may utilize a series of solvent systems in parallel to determine a concentration of metal ions.
A 5 μM sample of Compound 25 in 3:1 tetrahydrofuran:methanol or 2:1 tetrahydrofuran:methanol was prepared and exposed to varying amounts of Pb(NO3)2 (i.e., Pb^2+) dissolved in deionized water.

[4] = Ion selectivity, visual inspection when excited at 365 nm; details: 3:1 tetrahydrofuran:methanol
Method: Compound 25 was dissolved in 3:1 tetrahydrofuran:methanol and then exposed to varying amounts of Zn/SO4 (i.e., Zn^2+), (NH4)2Fe(SO4)2.6H2O (i.e., Fe^2+), Fe2O3 (i.e., Fe^3+), CuSO4 (i.e., Cu^2+), or Pb(NO3)2 (i.e., Pb^2+) each in deionized water. Upon visual inspection when excited at 365 nm, the sample exposed to Pb^2+turned green while all other samples remained blue.

[5] = Detection of lead in methanol extract of soil sample; details: methanol filtrate diluted in 3:1 tetrahydrofuran:methanol
Method: A lead-free soil sample was collected, placed into a Buchner funnel, and soaked with 1 mL of 0.15 M Pb(NO3)2 in water to introduce lead to the soil. As a control sample, the same was performed with the lead-free soil without exposure to Pb^2+. After soaking, the soil samples were washed with 50 mL of methanol. A sample from each filtrate was diluted in 3:1 tetrahydrofuran:methanol and exposed to Compound 25. […] This example illustrates that the substituted chromones described herein may be useful in detecting ions from soil extracts.

[6] = Extraction of lead from water with octanol and triethylamine; details: 3 mM Pb(NO3)2 in deionized water, 1 equivalent triethylamine
Method: A 3 mM Pb(NO3)2 sample was prepared in deionized water and Compound 25 was added to give a green fluorescence. The lead was then extracted from the water using either 1-octanol or 2-octanol each with 1 equivalent (relative to Compound 25) of triethylamine, which turned the octanol portion green. After washing thrice with 1-octanol, 99% of the Pb^2+had been extracted from the water. After washing twice with 2-octanol, 83% of the Pb^2+had been extracted from the water.

[7] = Visual detection limit of Pb(NO3)2 (color change blue to green); details: 5 μM compound in 3:1 tetrahydrofuran:methanol, Pb(NO3)2 in deionized water
Method: The detection limit Pb(NO3)2 (i.e., Pb^2+) for Compound 25 in 3:1 tetrahydrofuran:methanol was tested by exposing samples of 5 μM Compound 25 to ever decreasing concentrations of Pb(NO3)2 dissolved in deionized water.
A 40 mM solution of Pb(NO3)2 (i.e., Pb^2+) was prepared in tap water and then diluted with 3:1 tetrahydrofuran:methanol to a lead concentration of 133 μM. The resultant sample was added to solutions of 5 μM sample of Compound 25 in 3:1 tetrahydrofuran:methanol. […] This example illustrates that the lead detection can be performed using tap water, which includes a variety of other ions.

With COC(=O)C(C)(C)C1Oc2ccc(OC)cc2C(=O)/C1=C\O (centres unmarked) [Compound 11, (Z)-methyl-2-(3-(hydroxymethylene)-6-methoxy-4-oxochroman-2-yl)-2-methylpropanoate] the “red-shift in peak emission wavelength” value ([1]; 1:1 methanol:water) was “still exhibits a red-shift in peak emission wavelength”, the “intensity change for the peak emission wavelength with increasing metal ion concentration” value ([1]; methanol (FIG. 4)) was “intensity decrease” and the “Fe^3+ ions at which shift in emission spectrum is saturated” value ([1]; methanol) was “about 10 equivalents”. For the same compound, the “shift of peak emission wavelength” value ([1]; methanol, FeCl3 (FIG. 4)) was “significant red-shift”, the “total red-shift in peak emission wavelength” value ([1]; methanol) was ~30 nm and the “red-shift in peak emission wavelength” value ([1]; polar aprotic solvents such as tetrahydrofuran, acetonitrile, acetone) was “did not exhibit an appreciable red-shift”. The “red-shift in peak emission wavelength” value ([1]; polar protic solvents like water, methanol and mixtures thereof) was “exhibited an appreciable red-shift”, the “intensity change for the peak emission wavelength with increasing metal ion concentration” value ([2]; methanol (FIG. 6)) was “intensity decrease” and the “shift of peak emission wavelength” value ([2]; methanol, (NH4)2Fe(SO4)2.6H2O (FIG. 6)) was “does not exhibit appreciable shift”.

With CCc1ccc2c(c1)C(=O)/C(=C\NS(=O)(=O)c1ccc(C)cc1)C(C(C)(C)C(=O)OC)O2 (centres unmarked) [Compound 20, (Z)-methyl 2-(6-ethyl-3-((4-methylphenylsulfonamido)meth-ylene)-4-oxochroman-2-yl)-2-methylpropanoate] the “Pb^2+ at max shift in peak emission wavelength” value ([3]; 1:1 tetrahydrofuran:methanol) was “about 5 equivalents”, the “Pb^2+ at max shift in peak emission wavelength” value ([3]; 3:1 tetrahydrofuran:methanol) was “about 3 equivalents” and the “shift in peak emission wavelength” value ([3]; THF alone) was “no appreciable shift”. For the same compound, the “Pb^2+ at which shift in peak emission wavelength maxes out” value ([3]; methanol) was 10 equivalents, the “change of peak emission wavelength in the presence of Pb^2+” value ([3]; methanol, 1:1 and 3:1 tetrahydrofuran:methanol, tetrahydrofuran (FIGS. 7-10), degree depends on solvent) was “red-shift and intensity decrease” and the “shift in peak emission wavelength at 1 equivalent Pb^2+” value ([3]; mixed tetrahydrofuran/methanol) was “does have an appreciable shift”. For the same compound, the “red-shift in peak emission wavelength” value ([1]; 1:1 methanol:water) was “does not”, the “Fe^3+ ions at which shift in emission spectrum is saturated” value ([1]; methanol) was “about 10 equivalents” and the “total red-shift in peak emission wavelength” value ([1]; methanol) was ~50 nm.

For COC(=O)C(C)(C)C1Oc2ccc(OC)cc2C(=O)/C1=C\NS(=O)(=O)c1ccc(OC)cc1 (centres unmarked) [Compound 25, (Z)methyl-2-(6-methoxy-3-(((4-methoxyphenyl)sulfonamido)methylene)-4-oxochroman-2-yl)-2-methylpropanoate], the “fluorescence color of sample” value ([4]; (NH4)2Fe(SO4)2.6H2O in deionized water) was “remained blue”, the “fluorescence color of sample” value ([4]; CuSO4 in deionized water) was “remained blue” and the “fluorescence color of sample” value ([4]; Fe2O3 in deionized water) was “remained blue”. The “fluorescence color of sample” value ([4]; Pb(NO3)2 in deionized water) was “turned green”, the “fluorescence color of sample” value ([4]; Zn/SO4 in deionized water) was “remained blue” and the “color change with extract from soil sample exposed to Pb^2+” value [5] was “color change from blue to green”. The “Pb^2+ extracted from the water” value ([6]; washing thrice with 1-octanol) was 99%, the “Pb^2+ extracted from the water” value ([6]; washing twice with 2-octanol) was 83% and the “visual change of fluorescence in the presence of Pb^2+” value ([3]; 5 μM compound, 3:1 or 2:1 tetrahydrofuran:methanol) was “from blue to green”. For the same compound, the “change of peak emission wavelength in the presence of Pb^2+” value ([3]; 5 μM compound, 3:1 or 2:1 tetrahydrofuran:methanol, excitation 370 nm (FIGS. 11-12)) was “red-shift and intensity decrease” and the “speed of color change observed” value [7] was “almost instantaneous”.
